Source: patent US12077503B2, “Substituted cyclic amides and their use as herbicides” (FMC CORPORATION, priority 2015, dated 2024)

How the values were obtained:
Assay type in all cases: in vivo
Kochia (Kochia scoparia) [1] = test: Test A postemergence; settings: Bassia scoparia, post-emergence, 240 h, postemergence, read-out: Kochia plant response rating; for pest or weed control at 125 g/ha: 125 g ai/ha, visual injury on 0 to 100 scale (0 no effect, 100 complete control), approx. 10 d; for pest or weed control at 500 g/ha: 500 g ai/ha, 0 to 100 scale, 0 is no effect, 100 is complete control
How it was run: (§1)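 Seeds sprayed preemergence with a directed soil spray, or plants at 2 to 10 cm height and one- to two-leaf stage sprayed postemergence, with test chemicals in a non-phytotoxic solvent mixture containing surfactant, in loam soil–sand blend. Injury rated visually against untreated controls after about 10 d in greenhouse, 0 (no effect) to 100 (complete control).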

[2] = system: wheat (Triticum aestivum); test: Test A postemergence; settings: Triticum aestivum, post-emergence, 240 h, postemergence, read-out: Wheat plant response rating; for plant injury at 125 g/ha: 125 g ai/ha, visual injury on 0 to 100 scale (0 no effect, 100 complete control), approx. 10 d; for plant injury at 500 g/ha: 500 g ai/ha, 0 to 100 scale, 0 is no effect, 100 is complete control
How it was run: as §1

[3] = system: barnyardgrass (Echinochloa crus-galli); test: Test A postemergence; settings: Echinochloa crus-galli, post-emergence, 240 h, postemergence, read-out: Barnyardgrass plant response rating; for pest or weed control at 125 g/ha: 125 g ai/ha, visual injury on 0 to 100 scale (0 no effect, 100 complete control), approx. 10 d; for pest or weed control at 500 g/ha: 500 g ai/ha, 0 to 100 scale, 0 is no effect, 100 is complete control
How it was run: as §1

[4] = system: giant foxtail (Setaria faberii); test: Test A postemergence; settings: Setaria faberi, post-emergence, 240 h, postemergence, read-out: Foxtail, Giant plant response rating; for pest or weed control at 125 g/ha: 125 g ai/ha, visual injury on 0 to 100 scale (0 no effect, 100 complete control), approx. 10 d; for pest or weed control at 500 g/ha: 500 g ai/ha, 0 to 100 scale, 0 is no effect, 100 is complete control
How it was run: as §1

[5] = system: ducksalad (Heteranthera limosa); test: Test B flooded paddy test; settings: Heteranthera limosa, 250 g ai/ha, Flood; 0 to 100 scale where 0 is no effect and 100 is complete control; read-out: Ducksalad plant response rating
How it was run: (§2)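 Evaluation by eye, against controls, occurred 13–15 d post-treatment in a greenhouse, using a 0 (no effect) to 100 (complete control) scale. Application was into the paddy water, 3 cm deep over the soil, on 2-leaf plants.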

[6] = system: sedge, umbrella (small-flower umbrella sedge, Cyperus difformis); test: Test B flooded paddy test; settings: Cyperus difformis, 250 g ai/ha, Flood; 0 to 100 scale where 0 is no effect and 100 is complete control; read-out: Sedge, Umbrella plant response rating
How it was run: as §2

[7] = system: barnyardgrass (Echinochloa crus-galli); test: Test B flooded paddy test; settings: Echinochloa crus-galli, 250 g ai/ha, Flood; 0 to 100 scale where 0 is no effect and 100 is complete control; read-out: Barnyardgrass plant response rating
How it was run: as §2

rice (Oryra sativa) = test: Test B flooded paddy test; settings: Oryza sativa, 250 g ai/ha, Flood; 0 to 100 scale where 0 is no effect and 100 is complete control; read-out: Rice plant response rating
How it was run: as §2

Kochia (Kochia scoparia) [8] = test: Test A preemergence; settings: Bassia scoparia, pre-emergence, 240 h, preemergence, 0 to 100 scale where 0 is no effect and 100 is complete control, read-out: Kochia plant response rating; for pest or weed control at 125 g/ha: 125 g ai/ha, approx. 10 d; for pest or weed control at 500 g/ha: 500 g ai/ha
How it was run: as §1

[9] = system: ragweed (common ragweed, Ambrosia elatior); test: Test A preemergence; settings: Ambrosia artemisiifolia, pre-emergence, 240 h, preemergence, 0 to 100 scale where 0 is no effect and 100 is complete control, read-out: Ragweed plant response rating; for pest or weed control at 125 g/ha: 125 g ai/ha, approx. 10 d; for pest or weed control at 500 g/ha: 500 g ai/ha
How it was run: as §1

[10] = system: barnyardgrass (Echinochloa crus-galli); test: Test A preemergence; settings: Echinochloa crus-galli, pre-emergence, 240 h, preemergence, read-out: Barnyardgrass plant response rating; for pest or weed control at 125 g/ha: 125 g ai/ha, approx. 10 d; for pest or weed control at 500 g/ha: 500 g ai/ha
How it was run: as §1

[11] = system: pigweed (Amaranthus retroflexus); test: Test A preemergence; settings: Amaranthus retroflexus, pre-emergence, 240 h, preemergence, 0 to 100 scale where 0 is no effect and 100 is complete control, read-out: Pigweed plant response rating; for pest or weed control at 125 g/ha: 125 g ai/ha, approx. 10 d; for pest or weed control at 500 g/ha: 500 g ai/ha
[12] = system: ryegrass, Italian (Italian ryegrass, Lolium multiflorum); test: Test A preemergence; settings: Lolium multiflorum, pre-emergence, 240 h, preemergence, 0 to 100 scale where 0 is no effect and 100 is complete control, read-out: Ryegrass, Italian plant response rating; for pest or weed control at 125 g/ha: 125 g ai/ha, approx. 10 d; for pest or weed control at 500 g/ha: 500 g ai/ha
How it was run: as §1

[13] = system: giant foxtail (Setaria faberii); test: Test A preemergence; settings: Setaria faberi, pre-emergence, 240 h, preemergence, 0 to 100 scale where 0 is no effect and 100 is complete control, read-out: Foxtail, Giant plant response rating; for pest or weed control at 125 g/ha: 125 g ai/ha, approx. 10 d; for pest or weed control at 500 g/ha: 500 g ai/ha
How it was run: as §1

[14] = 0 to 100 scale where 0 is no effect and 100 is complete control

| SMILES | pest or weed control at 125 g/ha (Kochia (Kochia scoparia) [1]) [%] | pest or weed control at 500 g/ha (Kochia (Kochia scoparia) [1]) [%] | plant injury at 125 g/ha [2] [%] | plant injury at 500 g/ha [2] [%] | pest or weed control at 125 g/ha [3] [%] | pest or weed control at 500 g/ha [3] [%] | pest or weed control at 125 g/ha [4] [%] | pest or weed control at 500 g/ha [4] [%] | pest or weed control at 250 g/ha [5] [%] | pest or weed control at 250 g/ha [6] [%] | pest or weed control at 250 g/ha [7] [%] | pest or weed control at 250 g/ha (rice (Oryra sativa)) [%] | pest or weed control at 125 g/ha (Kochia (Kochia scoparia) [8]) [%] | pest or weed control at 500 g/ha (Kochia (Kochia scoparia) [8]) [%] | pest or weed control at 125 g/ha [9] [%] | pest or weed control at 500 g/ha [9] [%] | pest or weed control at 125 g/ha [10, 14] [%] | pest or weed control at 125 g/ha [11] [%] | pest or weed control at 500 g/ha [11] [%] | pest or weed control at 125 g/ha [12] [%] | other results |
| --- | --- | --- | --- | --- | --- | --- | --- | --- | --- | --- | --- | --- | --- | --- | --- | --- | --- | --- | --- | --- | --- |
| CN1C[C@H](c2csc(C(F)F)c2)[C@@H](C(=O)Nc2ccccc2F)C1=O [Compound 1123] | 60 | 70 | 0 | 60 | 90 | 90 | 90 | 90 | 100 | 0 | 70 | 25 | 60 | 80 | 20 | 60 | 90 | 0 | 50 | 40 | pest or weed control at 500 g/ha ([10]; visual injury rating about 10 d after treatment, 0 to 100 scale (0 no effect, 100 complete control)): 90%; pest or weed control at 500 g/ha [12]: 60%; pest or weed control at 125 g/ha [13]: 90%; pest or weed control at 500 g/ha [13]: 90% |
| CN1CC(c2cccc(/C=C/Cl)c2)C(C(=O)Nc2ccccc2F)C1=O (stereo not drawn) [Compound 1129] | 0 | 0 | 0 | 0 | 40 | 90 | 70 | 90 | 70 | 0 | 20 | 0 | 0 | 50 | 0 | 0 | 80 | 0 | 0 | 20 | pest or weed control at 500 g/ha [10, 14]: 90%; pest or weed control at 500 g/ha [12]: 50%; pest or weed control at 125 g/ha [13]: 90%; pest or weed control at 500 g/ha [13]: 90% |
| CN1CC(c2cccc(O)c2)C(C(=O)Nc2cccc(F)c2F)C1=O (stereo not drawn) [Compound 1130] | 0 | 0 | 0 | 0 | 0 | 20 | 0 | 30 | 0 | 0 | 0 | 0 | 0 | 0 | 0 | 0 | 0 | 0 | 0 | 0 | pest or weed control at 500 g/ha [10, 14]: 0%; pest or weed control at 500 g/ha [12]: 0%; pest or weed control at 125 g/ha [13]: 0%; pest or weed control at 500 g/ha [13]: 30% |
| O=C1NC[C@H](c2ccc(F)c(OC(F)(F)C(F)F)c2)[C@H]1C(=O)Nc1ccccc1F [Compound 1133] | 30 | 70 | 60 | 70 | 80 | 90 | 90 | 90 | 85 | 0 | 50 | 0 | 60 | 100 | 40 | 60 | 90 | 30 | 70 | 20 | pest or weed control at 500 g/ha [10, 14]: 90%; pest or weed control at 500 g/ha [12]: 30%; pest or weed control at 125 g/ha [13]: 90%; pest or weed control at 500 g/ha [13]: 90% |
| CC(C)Oc1ccc([C@H]2CNC(=O)[C@@H]2C(=O)Nc2ccccc2F)cc1 [Compound 1135] | 0 | 0 | 0 | 0 | 0 | 0 | 0 | 0 | 40 | 0 | 0 | 0 | 0 | 0 | 0 | 0 | 0 | 0 | 0 | 0 | pest or weed control at 500 g/ha [10, 14]: 0%; pest or weed control at 500 g/ha [12]: 0%; pest or weed control at 125 g/ha [13]: 0%; pest or weed control at 500 g/ha [13]: 0% |
